Measurements from patent US11311522B1 (Cavion, Inc., priority 2018, dated 2022).

Experiment: PN002/Part II: safety and tolerability
Format: in vivo
Excerpt: Clinical safety was monitored throughout the study by adverse events, clinical laboratory tests, vital signs, ECGs, and ECG telemetry.
The subject was not on telemetry at the time.

CC(C)c1ccc(CC(=O)N[C@H](C)c2ccc(OCC(F)(F)F)cn2)cc1 [CX-8998]
20 (66.7) N (%): Nervous System Disorders (any dose)
15 (50.0) N (%): Psychiatric Disorders (any dose)
6 (20.0) N (%): Eye Disorders (any dose) | Skin and Subcutaneous Tissue Disorders (any dose)
3 (50.0) n %: Headache (4 mg/d) | Psychiatric Disorders (4 mg/d) | Application site erythema (8 mg/d) | Gastrointestinal Disorders (8 mg/d) | Psychiatric Disorders (8 mg/d) | Respiratory, Thoracic and Mediastinal Disorders (8 mg/d) | Tiredness (8 mg/d) | Skin and Subcutaneous Tissue Disorders (18 mg/d)
27 (90.0) N (%): At least 1 adverse event (any dose)
5 (83.3) n %: At least 1 adverse event (4 mg/d) | Nervous System Disorders (4 mg/d) | Headache (8 mg/d) | Tiredness (12 mg/d)
11 (36.7) N (%): Gastrointestinal Disorders (any dose)
5 (15.7) N (%): Drowsiness (any dose)
4 of the 6 subjects: Subjects discontinuing treatment because of adverse events (18 mg once daily)
8 (26.7) N (%): Musculoskeletal and Connective Tissue Disorders (any dose)
4 (66.7) n %: At least 1 adverse event (2 mg/d) | Feeling of relaxation (4 mg/d) | Lightheadedness (4 mg/d) | Lightheadedness (8 mg/d) | Gastrointestinal Disorders (18 mg/d) | Headache (18 mg/d) | Musculoskeletal and Connective Tissue Disorders (18 mg/d)
4 (13.3) N (%): Application site erythema (any dose) | Euphoric mood (any dose) | Visual disturbance (any dose) | Vivid dreams (any dose)
3 (10.0) N (%): Daydreaming (any dose) | Dizziness (any dose) | Floating feeling (any dose) | Fuzzy head (any dose) | Hyperactivity (any dose) | Intermittent headache (any dose) | Lethargy (any dose) | Somnolence (any dose) | Sore throat (any dose) | Spaced out (any dose) | Vomiting (any dose)
5 (16.7) N (%): Nausea (any dose) | Respiratory, Thoracic and Mediastinal Disorders (any dose)
1 (16.7) n %: Disorientation (2 mg/d) | Headache (2 mg/d) | Nervous System Disorders (2 mg/d) | Psychiatric Disorders (2 mg/d) | Respiratory, Thoracic and Mediastinal Disorders (2 mg/d) | Sore throat (2 mg/d) | Syncope (2 mg/d) | Tingling (2 mg/d) | Tiredness (2 mg/d) | Vomiting (2 mg/d) | Euphoric mood (4 mg/d) | Eye Disorders (4 mg/d) | Floating feeling (4 mg/d) | Fuzzy head (4 mg/d) | Gastrointestinal Disorders (4 mg/d) | Increased state of alertness (4 mg/d) | Intermittent headache (4 mg/d) | Lethargy (4 mg/d) | Skin and Subcutaneous Tissue Disorders (4 mg/d) | Sleep disturbance (4 mg/d) | Somnolence (4 mg/d) | Visual disturbance (4 mg/d) | Application site pruritus (8 mg/d) | Clamminess (8 mg/d) | Daydreaming (8 mg/d) | Drowsiness (8 mg/d) | Feeling of relaxation (8 mg/d) | Fuzzy head (8 mg/d) | Increased state of alertness (8 mg/d) | Intermittent headache (8 mg/d) | Lethargy (8 mg/d) | Mood altered (8 mg/d) | Musculoskeletal and Connective Tissue Disorders (8 mg/d) | Nausea (8 mg/d) | Paraesthesia generalized (8 mg/d) | Sensation of heaviness (8 mg/d) | Skin and Subcutaneous Tissue Disorders (8 mg/d) | Sore throat (8 mg/d) | Spaced out (8 mg/d) | Taste change (8 mg/d) | Tingling (8 mg/d) | Visual disturbance (8 mg/d) | Vomiting (8 mg/d) | Application site erythema (12 mg/d) | Application site pruritus (12 mg/d) | Dizziness (12 mg/d) | Eye Disorders (12 mg/d) | Gastrointestinal Disorders (12 mg/d) | Headache (12 mg/d) | Heaviness of head (12 mg/d) | Hyperactivity (12 mg/d) | Intermittent headache (12 mg/d) | Mood altered (12 mg/d) | Musculoskeletal and Connective Tissue Disorders (12 mg/d) | Skin and Subcutaneous Tissue Disorders (12 mg/d) | Sleep difficult (12 mg/d) | Clamminess (18 mg/d) | Disorientation (18 mg/d) | Euphoric mood (18 mg/d) | Fuzzy head (18 mg/d) | Heaviness of head (18 mg/d) | Lethargy (18 mg/d) | Lightheadedness (18 mg/d) | Paraesthesia generalized (18 mg/d) | Respiratory, Thoracic and Mediastinal Disorders (18 mg/d) | Sensation of heaviness (18 mg/d) | Sleep difficult (18 mg/d) | Sleep disturbance (18 mg/d) | Sore throat (18 mg/d) | Syncope (18 mg/d) | Taste change (18 mg/d) | Vomiting (18 mg/d)
13 (43.3) N (%): Tiredness (any dose)
7 (23.3) N (%): Feeling of relaxation (any dose)
9 (30.0) N (%): Lightheadedness (any dose)
2 (33.3) n %: Gastrointestinal Disorders (2 mg/d) | Musculoskeletal and Connective Tissue Disorders (2 mg/d) | Nausea (2 mg/d) | Drowsiness (4 mg/d) | Tiredness (4 mg/d) | Vivid dreams (4 mg/d) | Dyspepsia (8 mg/d) | Euphoric mood (8 mg/d) | Eye Disorders (8 mg/d) | Floating feeling (8 mg/d) | Hyperactivity (8 mg/d) | Mood change (8 mg/d) | Sedation (8 mg/d) | Sensation of pressure (8 mg/d) | Somnolence (8 mg/d) | Temporal disorientation (8 mg/d) | Vivid dreams (8 mg/d) | Feeling of relaxation (12 mg/d) | Nervous System Disorders (12 mg/d) | Psychiatric Disorders (12 mg/d) | Abnormal physical sensation (18 mg/d) | Abnormal sensation of limbs (18 mg/d) | Anger (18 mg/d) | Backache (18 mg/d) | Daydreaming (18 mg/d) | Dizziness (18 mg/d) | Drowsiness (18 mg/d) | Eye Disorders (18 mg/d) | Feeling drunk (18 mg/d) | Hallucination (18 mg/d) | Hypoaesthesia mouth (18 mg/d) | Nausea (18 mg/d) | Paranoia (18 mg/d) | Spaced out (18 mg/d) | Tiredness (18 mg/d) | Visual disturbance (18 mg/d)
14 (46.7) N (%): Headache (any dose)
2 (6.7) N (%): Abnormal physical sensation (any dose) | Abnormal sensation of limbs (any dose) | Anger (any dose) | Application site pruritus (any dose) | Backache (any dose) | Clamminess (any dose) | Disorientation (any dose) | Dyspepsia (any dose) | Feeling drunk (any dose) | Hallucination (any dose) | Heaviness of head (any dose) | Hypoaesthesia mouth (any dose) | Increased state of alertness (any dose) | Mood altered (any dose) | Mood change (any dose) | Paraesthesia generalized (any dose) | Paranoia (any dose) | Sedation (any dose) | Sensation of heaviness (any dose) | Sensation of pressure (any dose) | Sleep difficult (any dose) | Sleep disturbance (any dose) | Syncope (any dose) | Taste change (any dose) | Temporal disorientation (any dose) | Tingling (any dose) | Nasal obstruction (male, human, in vivo, 7 days)
0 n %: Abnormal physical sensation (2 mg/d) | Abnormal sensation of limbs (2 mg/d) | Anger (2 mg/d) | Application site erythema (2 mg/d) | Application site pruritus (2 mg/d) | Backache (2 mg/d) | Clamminess (2 mg/d) | Daydreaming (2 mg/d) | Dizziness (2 mg/d) | Drowsiness (2 mg/d) | Dyspepsia (2 mg/d) | Euphoric mood (2 mg/d) | Eye Disorders (2 mg/d) | Feeling drunk (2 mg/d) | Feeling of relaxation (2 mg/d) | Floating feeling (2 mg/d) | Fuzzy head (2 mg/d) | Hallucination (2 mg/d) | Heaviness of head (2 mg/d) | Hyperactivity (2 mg/d) | Hypoaesthesia mouth (2 mg/d) | Increased state of alertness (2 mg/d) | Intermittent headache (2 mg/d) | Lethargy (2 mg/d) | Lightheadedness (2 mg/d) | Mood altered (2 mg/d) | Mood change (2 mg/d) | Paraesthesia generalized (2 mg/d) | Paranoia (2 mg/d) | Sedation (2 mg/d) | Sensation of heaviness (2 mg/d) | Sensation of pressure (2 mg/d) | Skin and Subcutaneous Tissue Disorders (2 mg/d) | Sleep difficult (2 mg/d) | Sleep disturbance (2 mg/d) | Somnolence (2 mg/d) | Spaced out (2 mg/d) | Taste change (2 mg/d) | Temporal disorientation (2 mg/d) | Visual disturbance (2 mg/d) | Vivid dreams (2 mg/d) | Abnormal physical sensation (4 mg/d) | Abnormal sensation of limbs (4 mg/d) | Anger (4 mg/d) | Application site erythema (4 mg/d) | Application site pruritus (4 mg/d) | Backache (4 mg/d) | Clamminess (4 mg/d) | Daydreaming (4 mg/d) | Disorientation (4 mg/d) | Dizziness (4 mg/d) | Dyspepsia (4 mg/d) | Feeling drunk (4 mg/d) | Hallucination (4 mg/d) | Heaviness of head (4 mg/d) | Hyperactivity (4 mg/d) | Hypoaesthesia mouth (4 mg/d) | Mood altered (4 mg/d) | Mood change (4 mg/d) | Musculoskeletal and Connective Tissue Disorders (4 mg/d) | Nausea (4 mg/d) | Paraesthesia generalized (4 mg/d) | Paranoia (4 mg/d) | Respiratory, Thoracic and Mediastinal Disorders (4 mg/d) | Sedation (4 mg/d) | Sensation of heaviness (4 mg/d) | Sensation of pressure (4 mg/d) | Sleep difficult (4 mg/d) | Sore throat (4 mg/d) | Spaced out (4 mg/d) | Syncope (4 mg/d) | Taste change (4 mg/d) | Temporal disorientation (4 mg/d) | Tingling (4 mg/d) | Vomiting (4 mg/d) | Abnormal physical sensation (8 mg/d) | Abnormal sensation of limbs (8 mg/d) | Anger (8 mg/d) | Backache (8 mg/d) | Disorientation (8 mg/d) | Dizziness (8 mg/d) | Feeling drunk (8 mg/d) | Hallucination (8 mg/d) | Heaviness of head (8 mg/d) | Hypoaesthesia mouth (8 mg/d) | Paranoia (8 mg/d) | Sleep difficult (8 mg/d) | Sleep disturbance (8 mg/d) | Syncope (8 mg/d) | Abnormal physical sensation (12 mg/d) | Abnormal sensation of limbs (12 mg/d) | Anger (12 mg/d) | Backache (12 mg/d) | Clamminess (12 mg/d) | Daydreaming (12 mg/d) | Disorientation (12 mg/d) | Drowsiness (12 mg/d) | Dyspepsia (12 mg/d) | Euphoric mood (12 mg/d) | Feeling drunk (12 mg/d) | Floating feeling (12 mg/d) | Fuzzy head (12 mg/d) | Hallucination (12 mg/d) | Hypoaesthesia mouth (12 mg/d) | Increased state of alertness (12 mg/d) | Lethargy (12 mg/d) | Lightheadedness (12 mg/d) | Mood change (12 mg/d) | Nausea (12 mg/d) | Paraesthesia generalized (12 mg/d) | Paranoia (12 mg/d) | Respiratory, Thoracic and Mediastinal Disorders (12 mg/d) | Sedation (12 mg/d) | Sensation of heaviness (12 mg/d) | Sensation of pressure (12 mg/d) | Sleep disturbance (12 mg/d) | Somnolence (12 mg/d) | Sore throat (12 mg/d) | Spaced out (12 mg/d) | Syncope (12 mg/d) | Taste change (12 mg/d) | Temporal disorientation (12 mg/d) | Tingling (12 mg/d) | Visual disturbance (12 mg/d) | Vivid dreams (12 mg/d) | Vomiting (12 mg/d) | Application site erythema (18 mg/d) | Application site pruritus (18 mg/d) | Dyspepsia (18 mg/d) | Feeling of relaxation (18 mg/d) | Floating feeling (18 mg/d) | Hyperactivity (18 mg/d) | Increased state of alertness (18 mg/d) | Intermittent headache (18 mg/d) | Mood altered (18 mg/d) | Mood change (18 mg/d) | Sedation (18 mg/d) | Sensation of pressure (18 mg/d) | Somnolence (18 mg/d) | Temporal disorientation (18 mg/d) | Tingling (18 mg/d) | Vivid dreams (18 mg/d)
6 (100) n %: At least 1 adverse event (8 mg/d) | Nervous System Disorders (8 mg/d) | At least 1 adverse event (12 mg/d) | At least 1 adverse event (18 mg/d) | Nervous System Disorders (18 mg/d) | Psychiatric Disorders (18 mg/d)
